Columns and labels:
Type in all cases: in vivo
[1] = tested on: broadleaf signalgrass (Brachiaria platyphylla); assay: Test E pre-/postemergence plant response; conditions: scale 0 to 100
Outline: (§1)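 Ratings of 0 (no effect) through 100 (complete control) came from visual evaluation against untreated plants after a 14- to 21-day greenhouse period. Compound in a non-phytotoxic solvent/surfactant mixture was applied preemergence to seeds and postemergence to plants at the 1- to 4-leaf stage.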

[2] = tested on: Italian ryegrass (Lolium multiflorum); assay: Test E pre-/postemergence plant response; conditions: scale 0 to 100
Outline: as §1

[3] = tested on: guineagrass (Panicum maximum); assay: Test E pre-/postemergence plant response; conditions: scale 0 to 100
Outline: as §1

[4] = tested on: itchgrass (Rottboellia cochinchinensis); assay: Test E pre-/postemergence plant response; conditions: scale 0 to 100
Outline: as §1

[5] = tested on: purple nutsedge (Cyperus rotundus); assay: Test E pre-/postemergence plant response; conditions: scale 0 to 100
Outline: as §1

[6] = tested on: common mallow (Malva sylvestris); assay: Test E pre-/postemergence plant response; conditions: scale 0 to 100
Outline: as §1

[7] = tested on: naked crabgrass (Digitaria nuda); assay: Test E pre-/postemergence plant response; conditions: scale 0 to 100
Outline: as §1

[8] = tested on: pitted morningglory (Ipomoea lacunosa); assay: Test E pre-/postemergence plant response; conditions: scale 0 to 100
Outline: as §1

[9] = tested on: annual bluegrass (Poa annua); assay: Test E pre-/postemergence plant response; conditions: scale 0 to 100
Outline: as §1

[10] = tested on: Italian ryegrass (Lolium multiflorum); assay: Test C pre-/postemergence plant response; conditions: Preemergence
Outline: (§2)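 Application timings covered preemergence and postemergence (1- to 4-leaf plants, 2 to 18 cm), using a non-phytotoxic solvent mixture that included a surfactant. Controlled-environment holding lasted 15 to 25 days before visual scoring, where 100 denotes complete control and 0 no effect.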

[11] = tested on: winter barley (Hordeum vulgare); assay: Test C pre-/postemergence plant response; conditions: Preemergence
Outline: as §2

[12] = tested on: spring wheat (Triticum aestivum); assay: Test C pre-/postemergence plant response; conditions: Preemergence
Outline: as §2

[13] = 8 g ai/ha, scale 0 to 100 (0 no effect, 100 complete control)
[14] = 16 g ai/ha, scale 0 to 100 (0 no effect, 100 complete control)
[15] = 31 g ai/ha, scale 0 to 100 (0 no effect, 100 complete control)
[16] = 62 g ai/ha, scale 0 to 100, 0 no effect, 100 complete control

Cc1cc(-c2ccc(Cl)cc2)nn1-c1c(OC(=O)C(C)C)cnn(C)c1=O [Compound 34]
35: Plant response rating, Nutsedge, Purple ([5]; 62 g ai/ha, Preemergence) | Plant response rating, Barley, Winter [11, 16]
90: Plant response rating, Signalgrass ([1]; 31 g ai/ha, Preemergence) | Plant response rating, Itchgrass ([4]; 62 g ai/ha, Preemergence) | Plant response rating, Wheat, Spring [12, 16]
65: Plant response rating, Signalgrass ([1]; 16 g ai/ha, Preemergence)
75: Plant response rating, Signalgrass ([1]; Postemergence, 8 g ai/ha)
0: Plant response rating, Nutsedge, Purple ([5]; 16 g ai/ha, Preemergence) | Plant response rating, Nutsedge, Purple ([5]; Postemergence, 8 g ai/ha) | Plant response rating, Nutsedge, Purple ([5]; Postemergence, 16 g ai/ha) | Plant response rating, Nutsedge, Purple ([5]; Postemergence, 31 g ai/ha) | Plant response rating, Nutsedge, Purple ([5]; Postemergence, 62 g ai/ha) | Plant response rating, Mallow ([6]; 16 g ai/ha, Preemergence) | Plant response rating, Mallow ([6]; 31 g ai/ha, Preemergence) | Plant response rating, Mallow ([6]; 62 g ai/ha, Preemergence) | Plant response rating, Mallow ([6]; Postemergence, 8 g ai/ha) | Plant response rating, Mallow ([6]; Postemergence, 16 g ai/ha) | Plant response rating, Mallow ([6]; Postemergence, 31 g ai/ha) | Plant response rating, Mallow ([6]; Postemergence, 62 g ai/ha) | Plant response rating, Morningglory ([8]; 16 g ai/ha, Preemergence) | Plant response rating, Morningglory ([8]; 31 g ai/ha, Preemergence) | Plant response rating, Morningglory ([8]; 62 g ai/ha, Preemergence) | Plant response rating, Morningglory ([8]; Postemergence, 8 g ai/ha) | Plant response rating, Morningglory ([8]; Postemergence, 16 g ai/ha) | Plant response rating, Morningglory ([8]; Postemergence, 31 g ai/ha) | Plant response rating, Bluegrass ([9]; 16 g ai/ha, Preemergence) | Plant response rating, Bluegrass ([9]; 31 g ai/ha, Preemergence) | Plant response rating, Bluegrass ([9]; Postemergence, 8 g ai/ha) | Plant response rating, Bluegrass ([9]; Postemergence, 16 g ai/ha) | Plant response rating, Bluegrass ([9]; Postemergence, 31 g ai/ha) | Plant response rating, Bluegrass ([9]; Postemergence, 62 g ai/ha) | Plant response rating, Barley, Winter [11, 13] | Plant response rating, Barley, Winter [11, 14] | Plant response rating, Wheat, Spring [12, 13] | Plant response rating, Wheat, Spring [12, 14]
10: Plant response rating, Barley, Winter [11, 15]
15: Plant response rating, Bluegrass ([9]; 62 g ai/ha, Preemergence)
50: Plant response rating, Wheat, Spring [12, 15]
40: Plant response rating, Crabgrass, Naked ([7]; Postemergence, 8 g ai/ha)
85: Plant response rating, Signalgrass ([1]; Postemergence, 16 g ai/ha) | Plant response rating, Itchgrass ([4]; 31 g ai/ha, Preemergence)
70: Plant response rating, Itchgrass ([4]; Postemergence, 8 g ai/ha)
30: Plant response rating, Morningglory ([8]; Postemergence, 62 g ai/ha) | Plant response rating, Ryegrass, Italian [10, 13]
20: Plant response rating, Nutsedge, Purple ([5]; 31 g ai/ha, Preemergence)
95: Plant response rating, Signalgrass ([1]; Postemergence, 31 g ai/ha) | Plant response rating, Ryegrass, Italian ([2]; Postemergence, 16 g ai/ha) | Plant response rating, Guineagrass ([3]; Postemergence, 8 g ai/ha) | Plant response rating, Guineagrass ([3]; Postemergence, 16 g ai/ha) | Plant response rating, Itchgrass ([4]; Postemergence, 31 g ai/ha) | Plant response rating, Itchgrass ([4]; Postemergence, 62 g ai/ha)
80: Plant response rating, Ryegrass, Italian ([2]; 16 g ai/ha, Preemergence) | Plant response rating, Itchgrass ([4]; 16 g ai/ha, Preemergence) | Plant response rating, Itchgrass ([4]; Postemergence, 16 g ai/ha) | Plant response rating, Crabgrass, Naked ([7]; Postemergence, 16 g ai/ha)
100: Plant response rating, Signalgrass ([1]; 62 g ai/ha, Preemergence) | Plant response rating, Signalgrass ([1]; Postemergence, 62 g ai/ha) | Plant response rating, Ryegrass, Italian ([2]; 31 g ai/ha, Preemergence) | Plant response rating, Ryegrass, Italian ([2]; 62 g ai/ha, Preemergence) | Plant response rating, Ryegrass, Italian ([2]; Postemergence, 31 g ai/ha) | Plant response rating, Ryegrass, Italian ([2]; Postemergence, 62 g ai/ha) | Plant response rating, Guineagrass ([3]; 16 g ai/ha, Preemergence) | Plant response rating, Guineagrass ([3]; 31 g ai/ha, Preemergence) | Plant response rating, Guineagrass ([3]; 62 g ai/ha, Preemergence) | Plant response rating, Guineagrass ([3]; Postemergence, 31 g ai/ha) | Plant response rating, Guineagrass ([3]; Postemergence, 62 g ai/ha) | Plant response rating, Crabgrass, Naked ([7]; 16 g ai/ha, Preemergence) | Plant response rating, Crabgrass, Naked ([7]; 31 g ai/ha, Preemergence) | Plant response rating, Crabgrass, Naked ([7]; 62 g ai/ha, Preemergence) | Plant response rating, Crabgrass, Naked ([7]; Postemergence, 62 g ai/ha) | Plant response rating, Ryegrass, Italian [10, 14] | Plant response rating, Ryegrass, Italian [10, 15] | Plant response rating, Ryegrass, Italian [10, 16]
60: Plant response rating, Ryegrass, Italian ([2]; Postemergence, 8 g ai/ha)

Source: US20100267561A1, “HERBICIDAL PYRIDAZINONE DERIVATIVES” (priority 2007, published 2010)
